Results reported in patent US20130143739A1, “HERBICIDAL COMPOSITION CONTAINING 4-amino-3-chloro-6-(4-chloro-2-fluoro-3-methoxyphenyl) pyridine-2-carboxylic acid or derivative thereof AND FLUROXYPYR or derivatives thereof” (DOW AGROSCIENCES LLC, priority 2011, published 2013).
Values joined by “and” are separate entries in the source; they are usually repeats but may differ in a detail not shown here. Identical values can stand only once.

Key:
Format in all cases: in vivo
[1] = tested on: CASOB (Cassia obtusifolia); assay: Postemergence field trial, weed control in range and pasture; settings: 29-42 DAA
Description: (§1) Evaluation of Postemergence Herbicidal Activity of Mixtures in Cereal crops and Range and Pasture.
(§2) Field trials were conducted in cereal crops (winter wheat (TRZAW), spring wheat (TRZAS) and spring barley (HORVU) in Canada, France, Germany, Spain, Denmark, United Kingdom and Belgium, and pasture trials were conducted in Colombia using standard herbicide small plot research methodology. Plot size was typical for small plot research, varying from 1.4 to 2 meters (m) wide by 3 to 10 m long. There were 2-4 replicates per treatment. The soil type ranged from coarse, to medium or heavy in terms of soil texture. Cereal crops were planted, grown and maintained as commercial production fields. Perennial pastures were natural plant and weed infestations as per normal local cultural practices. The cereal and pasture crops were grown using normal cultural practices for fertilization and maintenance to ensure good growth of the crop/pastures and the weeds.
(§3) Treatments were applied by backpack or bicycle sprayers using either compressed air, nitrogen, or carbon dioxide (CO2), at spray pressures from 200 to 300 Kpa. Spray tips were typically Flat Fan Teejet nozzles, such as TJ8003. Spray volumes varied from 200 to 400 liters per hectare (L/ha). MEOPA plant size at application varied from 70 to 80 centimeters (cm) tall active growth at flowering stage. All cereal weeds tested varied from 2 leaf to 8 leaf and often branched or tittered.
(§4) For each treatment, the appropriate formulated product amount to treat the plot area, to achieve the desired application rate, based on unit area of application (hectare), was calculated, measured, and mixed in water prior to applying with the backpack or bicycle sprayer. Treatments were rated as compared to the untreated control plots. The commercial fluroxypyr formulations used were Starane® Ultra (333 gr ae/liter) or Starane® 2 (200 gr ae/liter). Compound I was formulated as a 20% weight acid equivalent wettable granule (WG) or as a 7.5 gr ae/liter EC of the corresponding methyl ester. All Compound (I) treatments were tank mixed with an adjuvant. Compound (I) treatments in the cereal trials contained the safener cloquintocet-mexyl.
(§5) Colby's equation was used to determine the herbicidal effects expected from the mixtures (Colby, S. R. Calculation of the synergistic and antagonistic response of herbicide combinations. Weeds 1967, 15, 20-22.).
(§6) The following equation was used to calculate the expected activity of mixtures containing two active ingredients, A and B:
(§7) A=observed efficacy of active ingredient A at the same concentration as used in the mixture.
(§8) B=observed efficacy of active ingredient B at the same concentration as used in the mixture.

[2] = tested on: MEOPA (Melochia parviflora); assay: as above; settings: for Obs, observed percent weed control: 14 DAA, Table 1; for % Visual Injury, Obs: 63 DAA
Description: as §1, §2, §3, §4, §5, §6, §7, §8

SINAR (Sinapis arvensis) = assay: Postemergence field trial, weed control in cereal crops; settings: 58 DAA
Description: as §1, §2, §3, §4, §5, §6, §7, §8

LAMPU (Lamium purpureum) = assay: as above; settings: 28 DAA
Description: as §1, §2, §3, §4, §5, §6, §7, §8

[3] = tested on: AMARE (Amaranthus retroflexus); assay: as above; settings: 56 DAA
Description: as §1, §2, §3, §4, §5, §6, §7, §8

STAAN (Stachys annua) = assay: as above; settings: 14 DAA
Description: as §1, §2, §3, §4, §5, §6, §7, §8

[4] = tested on: CHEAL (Chenopodium album); assay: as above; settings: 14 DAA
Description: as §1, §2, §3, §4, §5, §6, §7, §8

[5] = tested on: VERHE (Veronica hederifolia); assay: as above; settings: 49 DAA
Description: as §1, §2, §3, §4, §5, §6, §7, §8

PAPRH (Papaver rhoeas) = assay: as above; settings: 28 DAA
Description: as §1, §2, §3, §4, §5, §6, §7, §8

VIOAR (Viola arvensis) = assay: as above; settings: 14 DAA
Description: as §1, §2, §3, §4, §5, §6, §7, §8

CIRAR (Cirsium arvense) = assay: as above; settings: 14 DAA
Description: as §1, §2, §3, §4, §5, §6, §7, §8

[6] = tested on: MATCH (Matricaria chamomilla); assay: as above
Description: as §1, §2, §3, §4, §5, §6, §7, §8

[7] = tested on: POLAV (Polygonum aviculare); assay: as above; settings: 13-27 DAA
Description: as §1, §2, §3, §4, §5, §6, §7, §8

STEME (Stellaria media) = assay: as above
Description: as §1, §2, §3, §4, §5, §6, §7, §8

[8] = tested on: VEROF (Veronica officinalis); assay: as above; settings: 28 DAA
Description: as §1, §2, §3, §4, §5, §6, §7, §8

[9] = fluroxypyr MHE 120 g ae/ha alone
[10] = fluroxypyr MHE 140 g ae/ha alone
[11] = fluroxypyr MHE 77 g ae/ha alone
[12] = fluroxypyr MHE 150 g ae/ha alone

CCCCCCC(C)OC(=O)COc1nc(F)c(Cl)c(N)c1Cl (centres unmarked) [Fluroxypyr (MHE), Fluroxypyr Methylheptyl Ester, reference compound]
% Visual Injury, Obs [1, 9]: 18%
Obs, observed percent weed control [2, 9]: 3.5%
% Visual Injury, Obs [2, 9]: 3% and 8%
% Visual Injury, Obs (SINAR (Sinapis arvensis); [10]): 13%
% Visual Injury, Obs (LAMPU (Lamium purpureum); fluroxypyr MHE 50 g ae/ha alone): 4%
% Visual Injury, Obs [3, 11]: 20%
% Visual Injury, Obs (STAAN (Stachys annua); [12]): 30%
% Visual Injury, Obs [4, 12]: 10%
% Visual Injury, Obs ([5]; fluroxypyr MHE 110 g ae/ha alone): 42%
% Visual Injury, Obs (PAPRH (Papaver rhoeas); [10]): 5%
% Visual Injury, Obs (VIOAR (Viola arvensis); [10]): 50%
% Visual Injury, Obs (CIRAR (Cirsium arvense); [12]): 10%
% Visual Injury, Obs ([6]; 27 DAA, fluroxypyr MHE 200 g ae/ha alone): 47%
% Visual Injury, Obs ([6]; 54 DAA, fluroxypyr MHE 150 g ae/ha alone): 0%
% Visual Injury, Obs [7, 11]: 25%
% Visual Injury, Obs ([7]; fluroxypyr MHE 80 g ae/ha alone): 61%
% Visual Injury, Obs (STEME (Stellaria media); 28 DAA, fluroxypyr MHE 200 g ae/ha alone): 27%
% Visual Injury, Obs (STEME (Stellaria media); 30 DAA, fluroxypyr MHE 80 g ae/ha alone): 81%
% Visual Injury, Obs (STEME (Stellaria media); 76 DAA, fluroxypyr MHE 110 g ae/ha alone, Table 5): 67%
% Visual Injury, Obs (STEME (Stellaria media); 76 DAA, fluroxypyr MHE 140 g ae/ha alone, Table 3): 77%
% Visual Injury, Obs [8, 10]: 0%

COc1c(Cl)ccc(-c2cc(N)c(Cl)c(C(=O)O)n2)c1F [XDE-729 (TEA)]
% Visual Injury, Obs (STAAN (Stachys annua); XDE-729 TEA 8.8 g ae/ha alone): 64%
% Visual Injury, Obs ([4]; XDE-729 TEA 8.8 g ae/ha alone): 83%
% Visual Injury, Obs (CIRAR (Cirsium arvense); XDE-729 TEA 8.8 g ae/ha alone): 64%
% Visual Injury, Obs ([6]; 27 DAA, XDE-729 TEA 35 g ae/ha alone): 8%
% Visual Injury, Obs (STEME (Stellaria media); 28 DAA, XDE-729 TEA 35 g ae/ha alone): 10%

COC(=O)c1nc(-c2ccc(Cl)c(OC)c2F)cc(N)c1Cl [XDE-729 (Methyl Ester), halauxifen-methyl]
% Visual Injury, Obs ([1]; XDE-729 Me 18 g ae/ha alone): 6%
% Visual Injury, Obs ([1]; XDE-729 Me 35 g ae/ha alone): 16%
Obs, observed percent weed control ([2]; XDE-729 methyl ester 17.5 g ae/ha alone): 48.5%
Obs, observed percent weed control ([2]; XDE-729 methyl ester 35 g ae/ha alone): 63.1%
% Visual Injury, Obs ([2]; XDE-729 Me 18 g ae/ha alone): 25%
% Visual Injury, Obs ([2]; XDE-729 Me 35 g ae/ha alone): 42%
% Visual Injury, Obs (SINAR (Sinapis arvensis); XDE-729 Me 6 g ae/ha alone): 0%
% Visual Injury, Obs (LAMPU (Lamium purpureum); XDE-729 Me 2 g ae/ha alone): 73%
% Visual Injury, Obs ([3]; XDE-729 Me 5 g ae/ha alone): 50%
% Visual Injury, Obs ([5]; XDE-729 Me 6 g ae/ha alone): 23%
% Visual Injury, Obs (PAPRH (Papaver rhoeas); XDE-729 Me 6 g ae/ha alone): 54%
% Visual Injury, Obs (VIOAR (Viola arvensis); XDE-729 Me 6 g ae/ha alone): 10%
% Visual Injury, Obs ([6]; 54 DAA, XDE-729 Me 6 g ae/ha alone): 0%
% Visual Injury, Obs ([7]; XDE-729 Me 2 g ae/ha alone): 0%
% Visual Injury, Obs ([7]; XDE-729 Me 5 g ae/ha alone): 53%
% Visual Injury, Obs (STEME (Stellaria media); 30 DAA, XDE-729 Me 2 g ae/ha alone): 58%
% Visual Injury, Obs (STEME (Stellaria media); 76 DAA, XDE-729 Me 4.5 g ae/ha alone, Table 3): 19%
% Visual Injury, Obs (STEME (Stellaria media); 76 DAA, XDE-729 Me 4.5 g ae/ha alone, Table 5): 22%
% Visual Injury, Obs (STEME (Stellaria media); 76 DAA, XDE-729 Me 6 g ae/ha alone, Table 3): 29%
% Visual Injury, Obs (STEME (Stellaria media); 76 DAA, XDE-729 Me 6 g ae/ha alone, Table 5): 38%
% Visual Injury, Obs ([8]; XDE-729 Me 6 g ae/ha alone): 0%
